Measured values reported in ChEMBL document CHEMBL1201862, “PubChem BioAssay data set” (2004).
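Protocol summary: plate cells (96-well), add compound at 5 concentrations, incubate 48 h, interpolate endpoints linearly. GI50 is the concentration that inhibits growth by half.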 Calls of active or inactive are those of the source. Rule as the data show it: active = GI50 up to about 1.1 µM and inactive = higher. Non-standard residues stand in square brackets, D forms with d. Residues, ends and D or L forms follow the SMILES beside them. ξ: configuration not given here. *: point of attachment. ξNMeF = CNC(Cc1ccccc1)C(=O)O; NMeV = CN[C@H](C(=O)O)C(C)C; Boc = CC(C)(C)OC(=O)*; OBn = c1ccc(CO*)cc1

How the values were obtained:
Assay in all cases: inhibition of tumour cell growth, NCI panel, 48 h
COLO 205 = system: COLO 205
LOX IMVI = system: LOX IMVI
KM12 = system: KM12
HOP-62 = system: HOP-62
CAKI-1 = system: CAKI-1
SK-MEL-2 = system: SK-MEL-2
UO-31 = system: UO-31
SF-268 = system: SF-268
SK-OV-3 = system: SK-OV-3
SN12C = system: SN12C
UACC-62 = system: UACC-62
OVCAR-5 = system: OVCAR-5
SK-MEL-28 = system: SK-MEL-28
IGROV-1 = system: IGROV-1
OVCAR-8 = system: OVCAR-8
HOP-92 = system: HOP-92
SR = system: SR
SK-MEL-5 = system: SK-MEL-5
Malme-3M = system: Malme-3M
NCI/ADR-RES = system: NCI/ADR-RES

Measured: GI50

CC(C)(C)NNC(=O)/C(=C/c1ccc(Oc2ccc(Cl)c(Cl)c2)cc1)NC(=O)c1ccccc1
inactive: COLO 205 16.2 µM | LOX IMVI 18.9 µM | KM12 > 100 µM | HOP-62 > 100 µM | CAKI-1 > 100 µM | SK-MEL-2 > 100 µM | UO-31 > 100 µM | SF-268 > 100 µM | SK-OV-3 > 100 µM | SN12C > 100 µM | UACC-62 > 100 µM | OVCAR-5 > 100 µM | SK-MEL-28 > 100 µM | IGROV-1 > 100 µM | OVCAR-8 > 100 µM | HOP-92 > 100 µM | SR 16.9 µM | SK-MEL-5 > 100 µM | Malme-3M > 100 µM

Cc1ccc(-c2cc(=O)c3cc(C)c(C)c(C(=O)O)c3o2)cc1C
inactive: COLO 205 > 100 µM | LOX IMVI > 100 µM | KM12 > 100 µM | HOP-62 > 100 µM | CAKI-1 28.4 µM | SK-MEL-2 > 100 µM | UO-31 > 100 µM | SK-OV-3 > 100 µM | SN12C > 100 µM | UACC-62 > 100 µM | OVCAR-5 > 100 µM | SK-MEL-28 > 100 µM | IGROV-1 > 100 µM | OVCAR-8 > 100 µM | HOP-92 > 100 µM | SR > 100 µM | SK-MEL-5 > 100 µM | Malme-3M > 100 µM

O=C(N/C(=C\c1ccccc1Cl)c1nc2ccccc2[nH]1)c1ccccc1
inactive: COLO 205 34.6 µM | KM12 32.5 µM | CAKI-1 29.5 µM | SK-MEL-2 23.5 µM | UO-31 11.2 µM | SF-268 32.7 µM | SK-OV-3 31.6 µM | SN12C 16.7 µM | UACC-62 21.4 µM | OVCAR-5 30.8 µM | SK-MEL-28 40.9 µM | IGROV-1 25.1 µM | OVCAR-8 27.5 µM | HOP-92 10.3 µM | SR 23.3 µM | SK-MEL-5 17.4 µM | Malme-3M 23.5 µM

COC(=O)C(=O)C(C(=O)C(=O)Nc1ccc(Cl)cc1C)c1nc2ccc(C(=O)c3ccccc3)cc2nc1O (centres undefined)
inactive: COLO 205 > 100 µM | LOX IMVI > 100 µM | KM12 63 µM | HOP-62 > 100 µM | CAKI-1 68.4 µM | SK-MEL-2 > 100 µM | UO-31 49.1 µM | SF-268 > 100 µM | SK-OV-3 > 100 µM | SN12C > 100 µM | UACC-62 61.9 µM | OVCAR-5 83 µM | IGROV-1 > 100 µM | OVCAR-8 > 100 µM | HOP-92 49.8 µM | SR 43.5 µM | Malme-3M > 100 µM

CCN(CC)CCNc1ccc2ncn3c4ccccc4c(=O)c1c23
inactive: COLO 205 1.87 µM | LOX IMVI 1.64 µM | KM12 5.2 µM | HOP-62 5.81 µM | CAKI-1 2.06 µM | SK-MEL-2 5.01 µM | UO-31 2.08 µM | SF-268 3.99 µM | SK-OV-3 2.45 µM | SN12C 5.36 µM | UACC-62 3.91 µM | OVCAR-5 7.93 µM | SK-MEL-28 4.12 µM | IGROV-1 3.83 µM | OVCAR-8 2.77 µM | HOP-92 2.28 µM | SR 1.63 µM | SK-MEL-5 3.52 µM | Malme-3M 3.63 µM

NN(CC(=O)O)CC(=O)O
inactive: COLO 205 > 100 µM | LOX IMVI > 100 µM | KM12 > 100 µM | HOP-62 > 100 µM | CAKI-1 > 100 µM | SK-MEL-2 > 100 µM | UO-31 > 100 µM | SF-268 > 100 µM | SK-OV-3 > 100 µM | SN12C > 100 µM | UACC-62 > 100 µM | OVCAR-5 > 100 µM | SK-MEL-28 > 100 µM | NCI/ADR-RES > 100 µM | IGROV-1 > 100 µM | OVCAR-8 > 100 µM | SK-MEL-5 > 100 µM | Malme-3M > 100 µM

CC(C)[C@@H](C(=O)N(C)[C@H](C(=O)N1CCC[C@H]1C(=O)OCc1ccccc1)C(C)C)N(C)C(=O)C(Cc1ccccc1)N(C)C(=O)[C@H](NC(=O)OC(C)(C)C)C(C)C (some centres undefined) (Boc-[dV][ξNMeF][NMeV][NMeV]P-OBn)
inactive: COLO 205 > 82.6 µM | LOX IMVI > 31.6 µM | KM12 > 10 µM | HOP-62 > 31.6 µM | CAKI-1 > 31.6 µM | SK-MEL-2 > 31.6 µM | UO-31 > 31.6 µM | SF-268 > 31.6 µM | SK-OV-3 > 31.6 µM | UACC-62 > 31.6 µM | OVCAR-5 > 31.6 µM | SK-MEL-28 > 31.6 µM | IGROV-1 > 31.6 µM | OVCAR-8 > 31.6 µM | HOP-92 8.34 µM | SR 19.7 µM | SK-MEL-5 15.6 µM | Malme-3M > 84.9 µM

COC(=O)CCC(=O)Nc1cc(Cl)ccc1Cl
inactive: LOX IMVI > 100 µM | KM12 > 100 µM | HOP-62 > 100 µM | CAKI-1 > 100 µM | SK-MEL-2 > 100 µM | UO-31 > 100 µM | SF-268 > 100 µM | SK-OV-3 > 100 µM | SN12C > 100 µM | UACC-62 > 100 µM | OVCAR-5 > 100 µM | SK-MEL-28 > 100 µM | IGROV-1 > 100 µM | OVCAR-8 > 100 µM | HOP-92 > 100 µM | SR > 100 µM | SK-MEL-5 > 100 µM | Malme-3M > 100 µM
